In the data set the test system is Rattus norvegicus. The following applies: chronic.

With `CCOP(=O)=O.CCOP(=O)=O.CCOP(=O)=O.[Al+3]` [Fosetyl aluminum], the NOAEL – broadly, the highest tested level that showed no adverse finding – was determined as 232 mg/kg-day.
